Experimental data: patent US20190352638A1, “THERAPEUTIC MODULATION OF C-FOS IN THE EYE” (Children's Medical Center Corporation, priority 2016, published 2019)

Assays:
Vldlr^−/− mice = test: Neovascularization analysis (lesion number and size) in Vldlr^−/− retina whole mounts; format: in vivo, mouse
Method: (§1) All animal studies were performed according to protocols approved by the Institutional Animal Care and Use Committee at the Boston Children's Hospital. Vldlr^+/− (heterozygous) mice from Jackson Laboratory (Stock #002529) were bred to generate homozygous and wild type littermates. SR11302 (TOCRIS, Cat. 2476) was dissolved in corn oil. Vldlr^−/− pups were orally gavaged with SR11302 or corn oil as control at a dose of 1 mg/kg body weight daily from P5 to P15. P16 retinas were collected for PCR and neovascularization analysis.
Vldlr^−/− and wild type retina whole mounts were stained with isolectin IB4 and imaged with AxioObserver Z1 microscope (Zeiss) with a monochrome digital camera (AxioCam MRm; Zeiss) focusing on the terminal end of lesions on the RPE layer (usually at P16), and individual images were merged to create one retinal image using the automated merge function (mosaiX; Zeiss) in the software (AxioVision 4.6.3.0; Zeiss). Image J was used for quantification of subretinal neovascularization lesion number and areas in Vldlr^−/− retinas (National Institutes of Health, imagej.nih.gov/ij/) with designed plugins adapted from the method used to measure retinal neovascularization (SWIFT_NV) in the OIR model (Stahl, A. et al., Angiogenesis 12, 297-301 (2009)) which use a user-designated threshold to mark lesion structures that clearly stand out from background fluorescence of normal vessels, and can automatically remove small artifacts by selecting objects with a minimum size of 100 pixels. Other larger artifacts such as occasional cellular debris or retinal periphery with hyperfluorescence can be manually excluded from quantification. Lesion numbers and areas were quantified with researchers masked to the identity of samples.
At P16, mice were anesthetized, the eyes were enucleated and fixed in 4% paraformaldehyde followed by dissection and staining of the retinas with fluoresceinated isolectin IB4 (Invitrogen) to visualize subretinal neovascularization in whole mounted retinas. 3D reconstructed images were taken with confocal microscopy (Leica TCS SP2 AOBS) and z-stacks were 3D reconstructed using Volocity software (Perkin Elmer).
Subretinal injection into P0 neonate eyes was performed as previously described (Matsuda, T., et al., Proc. Nat. Acad. Sci. USA 101, 16-22 (2004), and Wang, S., et al., Developmental cell 30, 513-527 (2014)) under a dissection microscope. P0 Vldlr^−/− or wild type pups were anesthetized on ice for several minutes. The eyelid was prepped with Betadine, followed by water, then 70% ethanol using cotton swabs. A blade was used to gently cut open the eyelid. The injection needle was inserted into the eyeball through the incision until slight resistance was felt. Approximately 0.5 μl solution containing siRNA/siControl or AAV2/Control (10^12-10^13 gc/ml) was introduced into the subretinal space using a pulled angled glass pipette controlled by a FemtoJet (Eppendorf). The left eyes were uninjected for within-animal controls. Curved forceps were used to slowly close the eyelid. Mice were placed on a circulating water blanket for warmth. The retinas were collected at P12 for PCR assay and P16 for whole mount analysis.

[1] = system: c-fos and its target genes (Mmp10, Il6, IlIb and Tnf); test: Quantitative RT-PCR of retinal mRNA; format: in vivo, mouse; conditions: oral gavage 1 mg/kg daily P5 to P15; Vldlr^−/− retinas
Method: as §1
Total RNA was extracted from mouse retinas using RNeasy kit (Qiagen) and reverse-transcribed with SuperScript® III Reverse Transcriptase (Thermo Fisher) to generate cDNA. Quantitative PCR was performed using a 7300 system (Applied Biosystems) with KAPA SYBR FAST qPCR Kits (Kapa Biosystems) using Rhodopsin, Pecam, Vldlr, CD68, CD11b, CD45, c-Fos, Il6, Il11b, Tnf, mmp10, Socs3, uPA, c-Jun, VEGF120, VEGF164, VEGF188 primers.
Subretinal injection into P0 neonate eyes was performed as previously described (Matsuda, T., et al., Proc. Nat. Acad. Sci. USA 101, 16-22 (2004), and Wang, S., et al., Developmental cell 30, 513-527 (2014)) under a dissection microscope. P0 Vldlr^−/− or wild type pups were anesthetized on ice for several minutes. The eyelid was prepped with Betadine, followed by water, then 70% ethanol using cotton swabs. […]

AP-1 = conditions: without activating transcription of retinoic acid response element; Fanjul et al. 1994; cited from earlier work
[2] = oral gavage 1 mg/kg daily P5 to P15, Vldlr^−/− mice
[3] = oral gavage, Vldlr^−/− retinas vs controls

For `CC1=C(/C=C/C(=C/C=C/C(C)=C/C(=O)O)c2ccc(C)cc2)C(C)(C)CCC1` [SR11302, (E,E,Z,E)-3-Methyl-7-(4-methylphenyl)-9-(2,6,6-trimethyl-1-cyclohexen-1-yl)-2,4,6,8-nonatetraenoic acid], which lesion size decreased (Vldlr^−/− mice; [2]) is on record?
Its lesion size decreased is 40%.

And the “total lesion number reduced” value (Vldlr^−/− mice; [2])?
Its value is 48%.

What about the “neovascularization (in words)” value (Vldlr^−/− mice; [3]) of the same compound?
The value was “inhibited”.

What about the “total lesion number (in words)” value (Vldlr^−/− mice; [3]) of the same compound?
Its value is “reduced”.

And the “total lesion size (in words)” value (Vldlr^−/− mice; [3])?
Its value is “reduced”.

What about the “c-FOS target genes (Il6, IlIb and Tnf) mRNA” value [1] of the same compound?
Its value is “reduced”.

And the c-fos expression itself [1]?
The c-fos expression itself was “without influencing”.

And the AP-1 activity (AP-1)?
The AP-1 activity was “specifically inhibits”.
